The results in this text go back to patent US10589078B2, “Metallic microneedles” (MICRODERMICS INC., priority 2013, dated 2020).

SMILES strings stand for the structures.

The format of this series is in vitro ADME. To be noted: pig, 3 min, 174 μM. How it is done: A 500 μm tall prototype nickel microneedle 120 fabricated using the method depicted in FIGS. 1A-1G was used to inject a fluorescent chemotherapeutic drug (doxorubicin) into pigskin. A backing plate of the microneedle was bonded to a drug container that was connected to a conventional syringe via a flexible plastic capillary tube. The syringe was filled with a 174 μM solution of doxorubicin in water. The syringe was placed in a commercial syringe pump system (from KD Scientific™ of Holliston, Mass.). The microneedle 120 was applied to a shaved pigskin sample. The pump was set to push the plunger to generate a constant flow rate of 0.2 μL/minute for 3 minutes. This flow rate was selected based on a study investigating the efficiency of transdermal drug injection using silicon microneedles (U. O. Häfeli, et al., (2009), Biomed. Microdevices, Vol. 11, pp. 943-950) which found an average delivery rate of 0.2 μL/minute through each needle in an injection trial. After the injection, the skin was cleaned and then scanned using confocal microscopy.

With `COc1cccc2c1C(=O)c1c(O)c3c(c(O)c1C2=O)C[C@@](O)(C(=O)CO)C[C@@H]3O[C@H]1C[C@H](N)[C@H](O)[C@H](C)O1` [doxorubicin], the “depth of penetration of doxorubicin into the skin” value was “approximately 130 μm”.
